These results are taken from patent US4923885A, “5-amino-1-(4-naphthoylbenzyl)-1,2,3-triazole-4-carboxamides and analogs as antiproliferative agents” (Merck & Co., Inc., priority 1988, dated 1990).

The test system of series [1] is Normal Human Epidermal Keratinocytes (NHEK). Description: Proliferation assay vs Normal Human Epidermal Keratinocytes (NHEK growth inhibition). The class given is cell-based. The settings on record: Dulbecco's modified Eagle's medium, 10% fetal calf serum, 37° C., 5% CO2, Giemsa, 650 nm, read-out: ED50 NHEK. Here is the method:
In these experiments, NHEK's were cultured in Dulbecco's modified Eagle's medium with 10% fetal calf serum at 37° C., 5% CO2. Each well of a 96 well plate was seeded with 2000 cells in 200 μl of each drug dilution in duplicate. A plate was stopped and fixed for each time point, stained with Giemsa and then read in a Titertek plate reader at 650 nm, and the absorbances were calibrated with known cell numbers on control plates. NHEK's were obtained from Clonetics Corporation at the secondary stage.

For series [2], the system named is nucleotide biosynthesis in normal human epidermal keratinocyte cells. Briefly: inhibition of nucleotide biosynthesis in normal human epidermal keratinocyte cells in vitro. It counts as cell-based. Set-up: dose or concentration left out as unconfirmed. From the text:
It has been known that it is the hyperproliferation of these cells in humans which causes psoriasis.

The conditions of series [3]: cited from earlier work; for side effects: psoriasis treatment; for clearing lesions: psoriasis, experimental use as chemotherapeutic agents; for effectiveness in treating psoriasis: inhibitors of purine or pyrimidine nucleotide biosynthesis.

In brackets after ≈: the same amount, converted by molar mass.

Consider `NC(=O)c1nnn(Cc2cc(Cl)c(Cc3ccc(Cl)c4ccccc34)c(Cl)c2)c1N` [Cl, Cl, CH2, α-Naphth-4-Cl, 5-Amino-l-[4-[(4-chloro-l-naphthalene)methyl]-3,5dichlorobenzyl]-1,2,3-triazole-4-carboxamide], for which, in series [1], the IC50 is 0.3 µg/mL (≈ 0.651 µM).
On the same count and under the same terms, as for `NC(=O)c1nnn(Cc2cc(Cl)c(C(=O)c3cccc4ccccc34)c(Cl)c2)c1N` [Cl, Cl, CO, α-Naphth, 5-Amino-l-[4-(l-naphthoyl)-3,5-dichlorobenzyl]-l,2,3-triazole-4-carboxamide], the figure is 0.3 µg/mL (≈ 0.681 µM).
On to `NC(=O)c1nnn(Cc2cc(Cl)c(C(=O)c3ccc4ccccc4c3)c(Cl)c2)c1N` [Cl, Cl, CO, β-Naphth, 5-Amino-1-[4-(2-naphthoyl)-3,5-dichlorobenzyl]-1,2,3-triazole-4-carboxamide], for which, in series [1], the IC50 is 1 µg/mL (≈ 2.27 µM).
As for `NC(=O)c1nnn(Cc2cc(Cl)c(Oc3ccc(Cl)c4ccccc34)c(Cl)c2)c1N` [Cl, Cl, O, α-Naphth-4-Cl, 5-Amino-l-[4-[(4-chloro-l-naphthalene)oxy]-3,5dichlorobenzyl]-1,2,3-triazole-4-carboxamide], in series [1], the IC50 was found to be 0.3 µg/mL (≈ 0.648 µM).
For `NC(=O)c1nnn(Cc2cc(Cl)c(C(=O)c3ccc(Cl)c4ccccc34)c(Cl)c2)c1N` [Compound A, 5-amino-l-(4-(4-chloronaphthoyl)-3,5-dichlorobenzyl)-1,2,3-triazole-4-carboxamide], in series [1], the IC50 turned out to be 0.08 µg/mL (≈ 0.169 µM). Further, the “efficacy in inhibiting nucleotide biosynthesis” value in series [2] was “inhibiting nucleotide biosynthesis”.
Take `COc1c(C)c2c(c(O)c1C/C=C(\C)CCC(=O)O)C(=O)OC2` [Mycophenolic acid]: the effect on psoriasis result in series [3] (mycophenolic acid given orally) is given as “controls psoriasis by causing remission”. Besides, in series [3], the side effects result was “unacceptable side effects” and the clearing lesions result was “success in clearing lesions”.
For `O=C(O)C[C@H](NC(=O)CP(=O)(O)O)C(=O)O` [N-phosphonacetyl-L-aspartate], in series [3], the “effectiveness in treating psoriasis” value is on record as “effective in treating the disease” and the side effects result is recorded as “unacceptable side effects due to toxicity”.
`NC(=O)c1nnn(Cc2cc(Cl)c(C(=O)c3ccc(Cl)cc3)c(Cl)c2)c1N` [Reference compound]: in series [1], the IC50 was 0.5 to 1 µg/mL (≈ 1.18 to 2.35 µM).
In the case of `O=c1[nH]cc(F)c(=O)[nH]1` [fluorouracil], in series [3], the “effectiveness in treating psoriasis” value was “effective in treating the disease” and the side effects entry was “unacceptable side effects due to toxicity”.
On to `CN(Cc1cnc2nc(N)nc(N)c2n1)c1ccc(C(=O)N[C@@H](CCC(=O)O)C(=O)O)cc1` [methotrexate], for which, in series [3], the “effectiveness in treating psoriasis” value is “effective in treating the disease” and the side effects entry is given as “unacceptable side effects due to toxicity”.
`Nc1nc2nc[nH]c2c(=S)[nH]1` [thioguanine]: in series [3], the “effectiveness in treating psoriasis” value is listed as “effective in treating the disease”, the side effects entry is given as “unacceptable side effects due to toxicity” and the clearing lesions entry is reported as “success in clearing lesions”.
